In one experiment the target is T1, Carboxypeptidase B2 (Homo sapiens, UniProt Q96IY4).
T1 sequence (Q96IY4 whole entry): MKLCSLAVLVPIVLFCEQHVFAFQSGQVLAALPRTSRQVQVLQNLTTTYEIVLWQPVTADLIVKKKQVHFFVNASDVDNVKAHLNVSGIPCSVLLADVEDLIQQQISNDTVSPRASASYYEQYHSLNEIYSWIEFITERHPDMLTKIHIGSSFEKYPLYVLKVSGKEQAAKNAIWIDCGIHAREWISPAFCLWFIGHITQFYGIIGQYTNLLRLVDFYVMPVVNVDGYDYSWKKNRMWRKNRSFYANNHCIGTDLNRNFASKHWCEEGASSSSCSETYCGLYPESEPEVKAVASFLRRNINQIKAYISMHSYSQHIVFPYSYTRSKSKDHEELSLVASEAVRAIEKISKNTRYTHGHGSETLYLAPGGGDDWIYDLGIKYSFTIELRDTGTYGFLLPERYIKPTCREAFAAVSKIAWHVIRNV

Experiment [1] deals with T2, Carboxypeptidase N catalytic chain (Homo sapiens, UniProt P15169).
T2 sequence (P15169 whole entry): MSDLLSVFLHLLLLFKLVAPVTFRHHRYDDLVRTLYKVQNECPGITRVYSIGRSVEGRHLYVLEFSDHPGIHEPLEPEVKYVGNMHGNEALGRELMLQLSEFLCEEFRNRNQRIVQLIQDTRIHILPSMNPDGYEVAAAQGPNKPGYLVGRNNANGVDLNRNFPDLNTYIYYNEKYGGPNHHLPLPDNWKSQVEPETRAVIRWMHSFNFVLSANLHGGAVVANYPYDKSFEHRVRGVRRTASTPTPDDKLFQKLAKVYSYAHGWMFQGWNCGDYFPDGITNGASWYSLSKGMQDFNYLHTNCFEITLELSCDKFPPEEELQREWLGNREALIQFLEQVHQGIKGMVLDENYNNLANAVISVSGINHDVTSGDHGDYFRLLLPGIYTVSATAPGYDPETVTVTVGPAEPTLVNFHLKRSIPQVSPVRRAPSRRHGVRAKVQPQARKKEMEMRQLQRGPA
In words: Inhibition of CPN (unknown origin).

In another experiment the target is Prothrombin (Homo sapiens, UniProt P00734). Nature of the experiment: Inhibition of factor2a (unknown origin).
A further experiment addresses T3, Carboxypeptidase A1 (Homo sapiens, UniProt P15085).
T3 sequence (P15085 whole entry): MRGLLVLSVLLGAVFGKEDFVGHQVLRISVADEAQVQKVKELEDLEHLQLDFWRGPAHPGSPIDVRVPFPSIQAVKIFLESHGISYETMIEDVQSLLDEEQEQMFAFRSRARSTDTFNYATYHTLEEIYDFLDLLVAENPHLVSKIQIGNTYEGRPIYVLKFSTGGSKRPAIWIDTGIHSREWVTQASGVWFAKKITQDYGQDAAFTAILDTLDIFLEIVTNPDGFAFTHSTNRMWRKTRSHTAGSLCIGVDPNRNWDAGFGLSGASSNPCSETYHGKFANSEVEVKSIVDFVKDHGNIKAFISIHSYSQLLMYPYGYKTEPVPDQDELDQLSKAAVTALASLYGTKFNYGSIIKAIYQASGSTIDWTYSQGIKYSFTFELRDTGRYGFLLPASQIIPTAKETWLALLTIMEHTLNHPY
In words: Inhibition of CPA (unknown origin).

The target in another experiment is Coagulation factor XI (Homo sapiens, UniProt P03951). In words: Inhibition of factor11a (unknown origin).
Chain of Coagulation factor XI (P03951 19-387 limits assumed): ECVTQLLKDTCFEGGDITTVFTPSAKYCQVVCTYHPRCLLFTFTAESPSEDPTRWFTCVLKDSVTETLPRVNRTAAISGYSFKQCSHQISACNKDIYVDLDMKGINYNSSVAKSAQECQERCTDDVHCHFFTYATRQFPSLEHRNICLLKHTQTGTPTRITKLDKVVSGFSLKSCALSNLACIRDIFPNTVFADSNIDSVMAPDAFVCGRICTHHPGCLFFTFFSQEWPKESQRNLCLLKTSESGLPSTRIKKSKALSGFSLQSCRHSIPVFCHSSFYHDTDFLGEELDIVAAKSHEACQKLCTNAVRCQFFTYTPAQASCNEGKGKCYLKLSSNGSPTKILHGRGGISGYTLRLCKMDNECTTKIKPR
Chain of Coagulation factor XI (P03951 388-625 limits assumed): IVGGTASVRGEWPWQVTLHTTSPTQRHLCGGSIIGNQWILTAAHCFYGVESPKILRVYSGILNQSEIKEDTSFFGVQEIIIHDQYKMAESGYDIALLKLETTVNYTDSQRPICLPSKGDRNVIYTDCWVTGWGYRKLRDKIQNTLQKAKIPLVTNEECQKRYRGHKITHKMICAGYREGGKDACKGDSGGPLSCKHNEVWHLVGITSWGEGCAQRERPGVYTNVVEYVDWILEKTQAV
For another experiment, the target named is Coagulation factor X (Homo sapiens, UniProt P00742). In words: Inhibition of factor10a (unknown origin).
Chain of Coagulation factor X (P00742 41-179 limits assumed): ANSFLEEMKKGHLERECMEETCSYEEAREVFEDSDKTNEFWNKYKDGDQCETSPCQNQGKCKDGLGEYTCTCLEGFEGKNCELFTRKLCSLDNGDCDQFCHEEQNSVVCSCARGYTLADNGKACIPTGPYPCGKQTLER
Chain of Coagulation factor X (P00742 235-488 limits assumed): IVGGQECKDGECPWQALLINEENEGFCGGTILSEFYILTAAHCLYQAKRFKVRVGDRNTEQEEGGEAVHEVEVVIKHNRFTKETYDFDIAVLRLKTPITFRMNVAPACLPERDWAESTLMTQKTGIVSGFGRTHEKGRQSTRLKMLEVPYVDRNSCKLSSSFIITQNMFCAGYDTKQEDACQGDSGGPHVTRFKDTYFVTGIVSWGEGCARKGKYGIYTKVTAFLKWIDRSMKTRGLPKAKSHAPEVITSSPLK
Another experiment addresses T4, Coagulation factor VII (Homo sapiens, UniProt P08709).
T4 sequence (P08709 whole entry): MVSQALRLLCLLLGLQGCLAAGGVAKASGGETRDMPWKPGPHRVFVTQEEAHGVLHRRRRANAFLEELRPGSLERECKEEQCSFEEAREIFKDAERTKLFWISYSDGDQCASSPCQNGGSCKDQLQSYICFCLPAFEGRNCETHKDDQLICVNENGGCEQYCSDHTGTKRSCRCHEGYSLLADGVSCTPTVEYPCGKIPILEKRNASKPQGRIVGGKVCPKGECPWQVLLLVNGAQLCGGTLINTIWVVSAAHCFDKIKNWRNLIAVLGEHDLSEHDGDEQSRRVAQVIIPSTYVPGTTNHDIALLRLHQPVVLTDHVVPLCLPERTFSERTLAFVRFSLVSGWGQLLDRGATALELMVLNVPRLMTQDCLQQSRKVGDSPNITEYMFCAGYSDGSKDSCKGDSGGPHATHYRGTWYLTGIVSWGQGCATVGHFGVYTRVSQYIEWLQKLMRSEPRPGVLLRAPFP
In words: Inhibition of factor7a (unknown origin).

pIC50: −log10 of the molar value. *1 amine or outer side, *2 acyl side, *3 side chain or, on linkers, in order; H or OH if unused. Where a SMILES comes first, the peptide text is derived from it. Bridges are numbered along the chain shown (N, C = ends). [ ]: non-standard residue; d: D form. hTyr = N[C@@H](CCc1ccc(O)cc1)C(=O)O; NMeA = CN[C@@H](C)C(=O)O; CO = O=C([*:1])[*:2]

Broadly, the pIC50 is −log10 of the IC50, conventionally taken in molar units. A high value points to a small IC50.

Description for Carboxypeptidase B2: Inhibition of human activated TAFI incubated for 15 mins by microtiter plate reader based assay

Compound `CC(C)CCNC(=O)[C@@H](CCCCNC(=O)OCc1ccccc1)NC(=O)N[C@@H](CCCCN)C(=O)O` gave a negative-log IC50 (pIC50) on Carboxypeptidase B2 of 5.85.

In the case of `CC(C)[C@@H]1NC(=O)[C@H](NC(=O)N[C@@H](CCCCN)C(=O)O)CCCCNC(=O)[C@H](Cc2ccccc2)NC(=O)[C@H](C)N(C)C(=O)[C@H](CCc2ccc(O)cc2)NC1=O`, the pIC50 in experiment [1] was 5.24; at Prothrombin it was 5.22; on Carboxypeptidase A1, under 4.00; at Coagulation factor XI, 4.92; on Coagulation factor X, under 4.00; at Coagulation factor VII it was under 4.00.

At Carboxypeptidase B2, `NCCCC[C@H](NC(=O)N[C@H](CC1CCCCC1)C(=O)NCC(c1ccccc1)c1ccccc1)C(=O)O` had a pIC50 of 6.92.

For `CC12CCC(C(NC(=O)[C@H](NC(=O)N[C@@H](CCCCN)C(=O)O)C3CCCCC3)C1)C2(C)C` (stereo partly specified), the pIC50 on Carboxypeptidase B2 was 6.00.

On to `CC(C)(NC(=O)N[C@@H](CCCCN)C(=O)O)C(=O)NC1CC2(C)CCC1C2(C)C` (stereo partly specified), for which the pIC50 against Carboxypeptidase B2 is 5.21.

Compound `CCC[C@@H](NC(=O)N[C@@H](CCCCN)C(=O)O)C(=O)NC1CC2(C)CCC1C2(C)C` (stereo partly specified) showed a pIC50 at Carboxypeptidase B2 of 7.82.

Turning to `CC12CCC(C(NC(=O)[C@@H](CC3CCCCC3)NC(=O)N[C@@H](CS(=O)(=O)CCN)C(=O)O)C1)C2(C)C` (stereo partly specified), the pIC50 against Carboxypeptidase B2 is 7.42.

The compound `CC12CCC(C(NC(=O)[C@@H](CC3CCCCC3)NC(=O)N[C@@H](Cc3ccc(N)nc3)C(=O)O)C1)C2(C)C` (stereo partly specified) had a pIC50 at Carboxypeptidase B2 of 9.00.

On to `CC12CCC(C(NC(=O)[C@@H](CC3CCCCC3)NC(=O)N[C@H](Cc3ccc(N)nc3)C(=O)O)C1)C2(C)C` (stereo partly specified), for which the pIC50 at Carboxypeptidase B2 is 6.60.

The compound `CC12CCC(C(NC(=O)[C@@H](CC3CCCCC3)NC(=O)N[C@@H](Cc3ccc(N)nc3)C(N)=O)C1)C2(C)C` (stereo partly specified) gave a pIC50 on Carboxypeptidase B2 of 6.24.

Turning to `CC12CCC(C(NC(=O)[C@@H](CC3CCCCC3)NC(=O)N[C@H](C#N)Cc3ccc(N)nc3)C1)C2(C)C` (stereo partly specified), the pIC50 on Carboxypeptidase B2 is 4.27.

The compound `CC12CCC(C(NC(=O)[C@@H](Cc3ccccc3)NC(=O)N[C@@H](CCCCN)C(=O)O)C1)C2(C)C` (single isomer, unassigned; (+)) gave a pIC50 against Carboxypeptidase B2 of 7.82.

Take `CC(C)C[C@@H](NC(=O)N[C@@H](CCCCN)C(=O)O)C(=O)NC1CC2(C)CCC1C2(C)C` (single isomer, unassigned; (+)): at Carboxypeptidase B2, the negative-log IC50 (pIC50) was 7.24.

For `CC(C)[C@@H]1NC(=O)[C@H](NC(=O)N[C@@H](CCCNC(=N)N)C(=O)O)CCCCNC(=O)[C@H](Cc2ccccc2)NC(=O)[C@H](C)N(C)C(=O)[C@H](CCc2ccc(O)cc2)NC1=O` [ANABAENOPEPTIN B] ({Arg-CO}-[dK]V[hTyr][NMeA]F; lactam 1-C), the pIC50 at Prothrombin was 5.80; on Coagulation factor XI, 4.62; against Coagulation factor X, under 4.00; against Coagulation factor VII, under 4.00.

For `CC[C@H](C)[C@@H]1NC(=O)[C@H](NC(=O)N[C@@H](CCCNC(=N)N)C(=O)O)CCCCNC(=O)[C@H](Cc2ccccc2)NC(=O)[C@H](C)N(C)C(=O)[C@H](CCc2ccc(O)cc2)NC1=O` [ANABAENOPEPTIN F] ({Arg-CO}-[dK]I[hTyr][NMeA]F; lactam 1-C), the pIC50 against Prothrombin was 6.46; on Coagulation factor XI, 5.41; against Coagulation factor X it was 4.42; on Coagulation factor VII, 4.46.

The record behind these values is ChEMBL document CHEMBL3576790, “Novel Small Molecule Inhibitors of Activated Thrombin Activatable Fibrinolysis Inhibitor (TAFIa) from Natural Product Anabaenopeptin” (J Med Chem, 2015).
